The supplement of paper PMC10307832

Columns and labels:
Assay in all cases: relative viability (nuclei count vs DMSO), 5 days (fraction); higher = more cells survive
[1] = compound: C1COCCN1C2=NC(=NC3=C2OC4=C3C=CC=N4)C5=CC(=CC=C5)NC(=O)C6=CN=C(C=C6)N
Summary of the method: (§1)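 Hoechst staining, done together with fixation and permeabilisation, marked nuclei for 4× imaging and MetaXpress counting. This followed 5 days without medium change after lung cancer cell lines, kept overnight at 37 °C in 1536-well plates, were pinned with five library-drug doses (not always all listed) spaced by √10 on vehicle-anchored plates. Viability is the ratio of treated-well to vehicle-well nuclei, expressed as a median across plates. Plates passed only at control CV below 25% with at least one doubling.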

[2] = compound: CN1CCC(CNc2ccc3ncc(-c4cccc(OC(F)(F)F)c4)n3n2)CC1 [SGI-1776]
Summary of the method: as §1

[3] = compound: Nc1ccccc1NC(=O)c1ccc(CNC(=O)OCc2cccnc2)cc1 [Entinostat]
Summary of the method: as §1

[4] = compound: CN1CCC(CNc2ccc3ncc(-c4cccc(OC(F)(F)F)c4)n3n2)CC1 [SGI-1776] + Cc1nc(Nc2ncc(C(=O)Nc3c(C)cccc3Cl)s2)cc(N2CCN(CCO)CC2)n1 [Dasatinib] (partner 0.075 µM)
Summary of the method: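 Dosing by pin tool came one day after lung cancer cell lines were seeded in 1536-well plates, using either one drug or a fixed anchor-drug dose plus five library-drug doses (not always all listed) in √10 steps. After 5 days, nuclei were counted on 4× images. Relative viability is treated-well nuclei count divided by vehicle-well nuclei count, and values are medians of duplicate plates.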

Row | Cell Line | relative viability ([1]; 0.02 µM) | relative viability ([1]; 0.06325 µM) | relative viability ([1]; 0.2 µM) | relative viability ([1]; 0.6325 µM) | relative viability ([1]; 2 µM) | relative viability ([2]; 0.08 µM) | relative viability ([2]; 0.8 µM) | relative viability ([2]; 2.53 µM) | relative viability ([2]; 8 µM) | relative viability ([3]; 0.02 µM) | relative viability ([3]; 0.06325 µM) | relative viability ([3]; 0.2 µM) | relative viability ([3]; 0.6325 µM) | relative viability ([3]; 2 µM) | relative viability ([4]; first compound 0.08 µM) | relative viability ([4]; first compound 0.8 µM) | relative viability ([4]; first compound 2.53 µM) | relative viability ([4]; first compound 8 µM)
1 | 201T | 0.963 | 0.994 | 0.985 | 1 | 0.897 | 1.01 | 0.991 | 0.964 | 0.891 | 1.04 | 1.04 | 1.03 | 0.712 | 0.624 | 0.603 | 0.555 | 0.47 | 0.471
2 | A549 | 1.05 | 1.1 | 0.97 | 0.991 | 0.471 | 0.992 | 1.01 | 0.959 | 0.795 | 1.02 | 1.03 | 0.901 | 0.842 | 0.508 | – | – | – | –
3 | A-427 | 0.971 | 0.994 | 0.909 | 0.857 | 0.704 | 1.08 | 1.08 | 0.975 | 0.84 | 1.1 | 1.12 | 0.978 | 0.878 | 0.619 | 0.736 | 0.693 | 0.665 | 0.499
4 | ABC-1 | 1.09 | 0.879 | 0.83 | 1.1 | 0.927 | 1.02 | 0.916 | 0.835 | 0.897 | 1.01 | 1.05 | 1.15 | 0.808 | 0.398 | 0.502 | 0.613 | 0.508 | 0.465
5 | BEN | 1.03 | 0.917 | 1.02 | 0.934 | 0.837 | 0.984 | 0.955 | 0.819 | 0.812 | 0.97 | 1.04 | 0.835 | 0.653 | 0.357 | 0.399 | 0.313 | 0.285 | 0.302
6 | CAL-12T | 0.937 | 1.05 | 0.972 | 1.02 | 0.788 | 1.06 | 1.14 | 0.913 | 0.996 | 1.04 | 1.05 | 1.2 | 0.982 | 0.691 | 0.633 | 0.351 | 0.348 | 0.246
7 | COR-L23 | 0.981 | 1.2 | 1.18 | 1.09 | 0.681 | 1.06 | 1.07 | 1.05 | 0.883 | 1 | 1.02 | 0.904 | 0.555 | 0.227 | 0.514 | 0.546 | 0.464 | 0.322
8 | COR-L 105 | 0.868 | 0.717 | 0.751 | 0.695 | 0.591 | 1.09 | 1.01 | 0.949 | 0.722 | 0.947 | 1.14 | 1.06 | 0.747 | 0.371 | 0.343 | 0.323 | 0.284 | 0.254
9 | Calu-6 | 1.05 | 1.04 | 1.01 | 0.998 | 0.685 | 1.06 | 1.02 | 0.976 | 0.852 | 1.02 | 1.02 | 1.02 | 0.761 | 0.544 | – | – | – | –
